Measurements as given in patent publication US10988434B2, “Fragrance mixture” (SYMRISE AG, priority 2016, dated 2021).

Assay: Storage stability under drastic conditions
Format: physicochemical
Settings: 60° C. and 5 bar pressure
Experimental: Example 15: Stability Studies
Mesaconic acid diethyl ester (MSDEE) was stored alone and as a component of various formulations for 24 and 72 hours respectively under drastic conditions at 60° C. and 5 bar pressure. The remaining amount of active substance was then determined.

Storage stability: remaining amount of active substance (MSDEE) After 24 h (24 h): 98% | Storage stability: remaining amount of active substance (MSDEE) After 72 h (72 h): 98%
Structure (SMILES): CCOC(=O)/C=C(\C)C(=O)OCC [Mesaconic acid diethyl ester, (E)-2-methyl-but-2-endicarboxylic acid diethyl ester]
